The record followed here is patent publication US5786492A, “Halichondrins” (Pharma Mar, S.A., priority 1992, dated 1998).

Converted amounts (≈) assume the structure as drawn. Where only a bound is given, the exact number is not on record here.

In this experiment the test system is P388 cell line. In words: antitumor P388 bioassay. Particulars: for IC50, murine leukaemia cell (P388 cell line): text comparison of three halichondrins. Type of experiment: cell-based, murine. The text has this: Most of the compounds have been submitted to the antitumor P388 bioassay.

Consider `C=C1C[C@@H]2CC[C@@]34C[C@H]5O[C@H]6[C@@H](O3)[C@H]3O[C@H](CC[C@@H]3O[C@H]6[C@H]5O4)CC(=O)O[C@@H]3[C@@H](C)[C@@H]4O[C@@H]5C[C@]6(C[C@@H]7O[C@]8(C[C@H](C)[C@@H]9O[C@@H]%10CC(C(O)CO)O[C@@H]%10C[C@@H]9O8)C[C@H](C)[C@@H]7O6)O[C@@H]5C[C@@H]4O[C@H]3C[C@H]3O[C@@H](CC[C@@H]1O2)C[C@@H](C)C3=C` (some centres unmarked) [Homohalichondrin B], for which the “IC50, murine leukaemia cell (P388 cell line)” value turned out to be 6.4 ng/mL (≈ 5.7 nM).

Regarding `C=C1C[C@@H]2CC[C@@]34C[C@H]5O[C@H]6[C@@H](O3)[C@H]3O[C@H](CC[C@@H]3O[C@H]6[C@H]5O4)CC(=O)O[C@@H]3[C@@H](C)[C@@H]4O[C@@H]5C[C@]6(C[C@@H]7O[C@]8(C[C@H](C)[C@@H]9O[C@H]([C@@H](O)C[C@@H](O)CO)C[C@@H]9O8)C[C@H](C)[C@@H]7O6)O[C@@H]5C[C@@H]4O[C@H]3C[C@H]3O[C@@H](CC[C@@H]1O2)C[C@@H](C)C3=C` [Halichondrin B], the “IC50, murine leukaemia cell (P388 cell line)” value came to 6.7 ng/mL (≈ 6.03 nM). For the same compound, under “conc 0.0001 (unit of conc not given)”, the “IC50 against P388 cell line” value worked out at 0.78 ng/mL (≈ 0.702 nM). For the same compound, the “IC50 against P388 cell line” value (conc 0.001 (unit of conc not given)) came to 1.58 ng/mL (≈ 1.42 nM). The “IC50 against P388 cell line” value (other day, conc 0.001 (unit of conc not given)) was below 0.09 ng/mL.
